Measurements taken from the CheMixHub viscosity set.

Test: xn = mol fraction of the nth substance listed
Conditions: 101.33 kPa

NCCCN + OCCOCCOCCOCCO
viscosity [mPa·s]
Conditions | 293.15 K | 298.15 K | 303.15 K
x2 = 0.0197 | 2.27 | 1.95 | 1.76
x2 = 0.0407 | 2.72 | 2.32 | 2.08
x2 = 0.0631 | 3.37 | 2.84 | 2.52
x2 = 0.0871 | 4.07 | 3.41 | 2.99
x2 = 0.1129 | 5.06 | 4.2 | 3.64
x2 = 0.1406 | 6.38 | 5.25 | 4.48
x2 = 0.1705 | 8.2 | 6.64 | 5.62
x2 = 0.2028 | 10.6 | 8.44 | 7.08
x2 = 0.238 | 13.9 | 10.9 | 9.08
x2 = 0.2762 | 18.5 | 14.2 | 11.6
x2 = 0.3181 | 24.6 | 18.7 | 15.1
x2 = 0.3641 | 33.1 | 24.9 | 19.6
x2 = 0.4148 | 43.8 | 32.6 | 25.2
x2 = 0.4711 | 57.6 | 41.4 | 31.7
x2 = 0.5338 | 71.2 | 50.7 | 38.4
x2 = 0.6042 | 81.6 | 57.9 | 43.7
x2 = 0.6838 | 85.1 | 60.9 | 46
x2 = 0.7745 | 81.2 | 59.1 | 45
x2 = 0.8788 | 71.9 | 53.1 | –
